From the supplement of paper PMC11061612

Key:
U-698-M [1] = assay: Bliss excess, mean over the matrix (fraction); higher = more synergy; conditions: U-[…], B-Cell Non-Hodgkin's Lymphoma
How it was run: (§1)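 After 24 hours at 37°C and 5% CO2 in 1536-well plates, cells in DMEM/F12 or RPMI plus 10% FBS received two-drug dose matrices for 72 hours. Viability came from CellTiter-Glo 2.0 luminescence and was scaled as inhibition, anchored at 0 by vehicle wells and at 1 by blank wells. Combination Emax is taken as the second-highest inhibition in the matrix, and Bliss excess as the observed combination effect less EA + EB − EA·EB, with EA and EB the single-agent effects.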

U-698-M [2] = assay: combination Emax (second highest fraction inhibited in the dose matrix, 72 h); higher = more inhibition; conditions: B-Cell Non-Hodgkin's Lymphoma
How it was run: as §1

[3] = first compound max 10 µM, partner max 2 µM, 7x7
[4] = first compound max 10 µM, partner max 10 µM, 7x7
[5] = first compound max 2 µM, partner max 1 µM, 7x7
[6] = first compound max 1 µM, partner max 10 µM, 7x7
[7] = first compound max 10 µM, partner max 0.3 µM, 7x7
[8] = first compound max 10 µM, partner max 1 µM, 7x7
[9] = first compound max 1 µM, partner max 1 µM, 7x7
[10] = first compound max 0.001 µM, partner max 10 µM, 7x7
[11] = first compound max 0.3 µM, partner max 1 µM, 7x7
[12] = first compound max 0.3 µM, partner max 10 µM, 7x7
[13] = first compound max 10 µM, partner max 20 µM, 7x7
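Throughout, for Bliss excess, mean over the matrix: after 72 h of two-drug dosing.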

Structure (SMILES): C[C@@H](Oc1cc(-c2cnn(C3CCNCC3)c2)cnc1N)c1c(Cl)ccc(F)c1Cl [Crizotinib] + CC1=C(C(=CC=C1)Cl)NC(=O)C2=CN=C(S2)NC3=CC(=NC(=N3)C)N4CCN(CC4)CCO [Dasatinib]
- Bliss excess (U-698-M [1]; [3]): -0.0005
- combination Emax (U-698-M [2]; [3]): 0.861

Structure (SMILES): C[C@@H](Oc1cc(-c2cnn(C3CCNCC3)c2)cnc1N)c1c(Cl)ccc(F)c1Cl [Crizotinib] + Cn1cnc2c(F)c(Nc3ccc(Br)cc3Cl)c(C(=O)NOCCO)cc21 [Selumetinib]
- Bliss excess (U-698-M [1]; [4]): -0.0663
- combination Emax (U-698-M [2]; [4]): 0.752

Structure (SMILES): Cc1nc(Nc2ncc(C(=O)Nc3c(C)cccc3Cl)s2)cc(N2CCN(CCO)CC2)n1 [Dasatinib] + CC(=O)Nc1cccc(-n2c(=O)n(C3CC3)c(=O)c3c(Nc4ccc(I)cc4F)n(C)c(=O)c(C)c32)c1 [Trametinib]
- Bliss excess (U-698-M [1]; [5]): -0.0131
- combination Emax (U-698-M [2]; [5]): 0.432

Structure (SMILES): COc1cccc2c1C(=O)c1c(O)c3c(c(O)c1C2=O)C[C@@](O)(C(=O)CO)C[C@@H]3O[C@H]1C[C@H](N)[C@H](O)[C@H](C)O1 [Doxorubicin] + Cc1cc2ncnn2cc1Nc1ncc2c(n1)n(C1CCOCC1)c(=O)n2C [AZD7648]
- Bliss excess (U-698-M [1]; [6]): 0.084
- combination Emax (U-698-M [2]; [6]): 0.909

Structure (SMILES): COc1cc2ncnc(Nc3ccc(F)c(Cl)c3)c2cc1OCCCN1CCOCC1 [Gefitinib] + CC(C)n1c(=O)n(C)c2cnc3cc(F)c(-c4ccc(OCCCN5CCCCC5)nc4)cc3c21 [AZD1390]
- Bliss excess (U-698-M [1]; [7]): -0.0593
- combination Emax (U-698-M [2]; [7]): 0.354

Structure (SMILES): CS(=O)(=O)CCNCc1ccc(-c2ccc3ncnc(Nc4ccc(OCc5cccc(F)c5)c(Cl)c4)c3c2)o1 [Lapatinib] + C[C@@H](Oc1cc(-c2cnn(C3CCNCC3)c2)cnc1N)c1c(Cl)ccc(F)c1Cl [Crizotinib]
- Bliss excess (U-698-M [1]; [4]): -0.0653
- combination Emax (U-698-M [2]; [4]): 0.934

Structure (SMILES): CS(=O)(=O)CCNCc1ccc(-c2ccc3ncnc(Nc4ccc(OCc5cccc(F)c5)c(Cl)c4)c3c2)o1 [Lapatinib] + Cn1cnc2c(F)c(Nc3ccc(Br)cc3Cl)c(C(=O)NOCCO)cc21 [Selumetinib]
- Bliss excess (U-698-M [1]; [4]): -0.0215
- combination Emax (U-698-M [2]; [4]): 0.585

Structure (SMILES): CS(=O)(=O)CCNCc1ccc(-c2ccc3ncnc(Nc4ccc(OCc5cccc(F)c5)c(Cl)c4)c3c2)o1 [Lapatinib] + NC1(c2ccc(-c3nc4ccn5c(=O)[nH]nc5c4cc3-c3ccccc3)cc2)CCC1 [MK-2206]
- Bliss excess (U-698-M [1]; [4]): 0.0097
- combination Emax (U-698-M [2]; [4]): 0.905

Structure (SMILES): O=C(c1cc(Cc2n[nH]c(=O)c3ccccc23)ccc1F)N1CCN(C(=O)C2CC2)CC1 [Olaparib] + CC1(C)CCC(CN2CCN(c3ccc(C(=O)NS(=O)(=O)c4ccc(NCC5CCOCC5)c([N+](=O)[O-])c4)c(Oc4cnc5[nH]ccc5c4)c3)CC2)=C(c2ccc(Cl)cc2)C1 [Venetoclax]
- Bliss excess (U-698-M [1]; [8]): -0.0064
- combination Emax (U-698-M [2]; [8]): 0.192

Structure (SMILES): O=C(c1cc(Cc2n[nH]c(=O)c3ccccc23)ccc1F)N1CCN(C(=O)C2CC2)CC1 [Olaparib] + CN(CC[C@H](CSC1=CC=CC=C1)NC2=C(C=C(C=C2)S(=O)(=O)NC(=O)C3=CC=C(C=C3)N4CCC(CC4)[C@H](C5=CC=CC=C5C6=CC=C(C=C6)Cl)O)S(=O)(=O)C(F)(F)F)CCO [AZD4320]
- Bliss excess (U-698-M [1]; [8]): -0.0494
- combination Emax (U-698-M [2]; [8]): 0.135

Structure (SMILES): O=C(c1cc(Cc2n[nH]c(=O)c3ccccc23)ccc1F)N1CCN(C(=O)C2CC2)CC1 [Olaparib] + COc1nnc2ccc(N3CCC(c4ccc(OCCN5CCN(C)C(=O)[C@H]5C)cc4)CC3)nn12 [AZD5153]
- Bliss excess (U-698-M [1]; [8]): -0.0374
- combination Emax (U-698-M [2]; [8]): 0.578

Structure (SMILES): O=C(c1cc(Cc2n[nH]c(=O)c3ccccc23)ccc1F)N1CCN(C(=O)C2CC2)CC1 [Olaparib] + Cc1c2c(nn1C)CSCc1cc(n(C)n1)CSc1cc(c3ccccc3c1)OCCCc1c(C(=O)O)n(C)c3c-2c(Cl)ccc13 [AZD5991]
- Bliss excess (U-698-M [1]; [8]): 0.0244
- combination Emax (U-698-M [2]; [8]): 0.987

Structure (SMILES): CC(=O)c1c(C)c2cnc(Nc3ccc(N4CCNCC4)cn3)nc2n(C2CCCC2)c1=O [Palbociclib] + CC1(C)CCC(CN2CCN(c3ccc(C(=O)NS(=O)(=O)c4ccc(NCC5CCOCC5)c([N+](=O)[O-])c4)c(Oc4cnc5[nH]ccc5c4)c3)CC2)=C(c2ccc(Cl)cc2)C1 [Venetoclax]
- Bliss excess (U-698-M [1]; [8]): -0.0676
- combination Emax (U-698-M [2]; [8]): 0.548

Structure (SMILES): CC(=O)c1c(C)c2cnc(Nc3ccc(N4CCNCC4)cn3)nc2n(C2CCCC2)c1=O [Palbociclib] + Cc1c2c(nn1C)CSCc1cc(n(C)n1)CSc1cc(c3ccccc3c1)OCCCc1c(C(=O)O)n(C)c3c-2c(Cl)ccc13 [AZD5991]
- Bliss excess (U-698-M [1]; [8]): -0.0228
- combination Emax (U-698-M [2]; [8]): 0.98

Structure (SMILES): CC(=O)c1c(C)c2cnc(Nc3ccc(N4CCNCC4)cn3)nc2n(C2CCCC2)c1=O [Palbociclib] + Cn1cnc2c(F)c(Nc3ccc(Br)cc3Cl)c(C(=O)NOCCO)cc21 [Selumetinib]
- Bliss excess (U-698-M [1]; [4]): -0.0483
- combination Emax (U-698-M [2]; [4]): 0.583

Structure (SMILES): COc1cccc(OCCCN)c1-c1cc(Nc2cnc(C#N)cn2)n[nH]1 [Prexasertib] + C=CCn1c(=O)c2cnc(Nc3ccc(N4CCN(C)CC4)cc3)nc2n1-c1cccc(C(C)(C)O)n1 [AZD1775]
- Bliss excess (U-698-M [1]; first compound max 1 µM, partner max 1 µM): 0.0762
- combination Emax (U-698-M [2]; first compound max 1 µM, partner max 1 µM, may be a limit of the assay): 1

Structure (SMILES): COc1cccc(OCCCN)c1-c1cc(Nc2cnc(C#N)cn2)n[nH]1 [Prexasertib] + CCc1c2c(nc3ccc(O)cc13)-c1cc3c(c(=O)n1C2)COC(=O)[C@]3(O)CC [SN-38]
- Bliss excess (U-698-M [1]; first compound max 1 µM, partner max 0.3 µM, 7x7): 0.0237
- combination Emax (U-698-M [2]; first compound max 1 µM, partner max 0.3 µM, 7x7, may be a limit of the assay): 1

Structure (SMILES): COc1cccc(OCCCN)c1-c1cc(Nc2cnc(C#N)cn2)n[nH]1 [Prexasertib] + CN(C)CCCOc1ccc(-c2ccc3ncc4c(c3c2)n(C2CCOCC2)c(=O)n4C)cn1 [AZD0156]
- Bliss excess (U-698-M [1]; [9]): 0.0361
- combination Emax (U-698-M [2]; first compound max 1 µM, partner max 1 µM, 7x7, may be a limit of the assay): 1

Structure (SMILES): COc1cccc(OCCCN)c1-c1cc(Nc2cnc(C#N)cn2)n[nH]1 [Prexasertib] + C[C@@H]1COCCN1C2=NC(=NC(=C2)C3(CC3)[S@](=N)(=O)C)C4=C5C=CNC5=NC=C4 [AZD6738]
- Bliss excess (U-698-M [1]; [6]): -0.0348
- combination Emax (U-698-M [2]; [6]): 0.996

Structure (SMILES): COc1cccc(OCCCN)c1-c1cc(Nc2cnc(C#N)cn2)n[nH]1 [Prexasertib] + Cc1cc2ncnn2cc1Nc1ncc2c(n1)n(C1CCOCC1)c(=O)n2C [AZD7648]
- Bliss excess (U-698-M [1]; [6]): -0.0029
- combination Emax (U-698-M [2]; [6]): 0.975

Structure (SMILES): COc1cccc(OCCCN)c1-c1cc(Nc2cnc(C#N)cn2)n[nH]1 [Prexasertib] + O=C(c1cc(Cc2n[nH]c(=O)c3ccccc23)ccc1F)N1CCN(C(=O)C2CC2)CC1 [Olaparib]
- Bliss excess (U-698-M [1]; [6]): -0.0433
- combination Emax (U-698-M [2]; [6]): 0.953

Structure (SMILES): COc1cc2c(cc1OCCCCCOc1cc3c(cc1OC)C(=O)N1C=C(C)C[C@H]1C=N3)N=C[C@@H]1CC(C)=CN1C2=O [SG3199] + O=C(c1cc(Cc2n[nH]c(=O)c3ccccc23)ccc1F)N1CCN(C(=O)C2CC2)CC1 [Olaparib]
- Bliss excess (U-698-M [1]; [10]): -0.0531
- combination Emax (U-698-M [2]; [10]): 0.0822

Structure (SMILES): CCc1c2c(nc3ccc(O)cc13)-c1cc3c(c(=O)n1C2)COC(=O)[C@]3(O)CC [SN-38] + CN(C)CCCOc1ccc(-c2ccc3ncc4c(c3c2)n(C2CCOCC2)c(=O)n4C)cn1 [AZD0156]
- Bliss excess (U-698-M [1]; [11]): 0.0615
- combination Emax (U-698-M [2]; [11]): 0.908

Structure (SMILES): CCc1c2c(nc3ccc(O)cc13)-c1cc3c(c(=O)n1C2)COC(=O)[C@]3(O)CC [SN-38] + O=C(c1cc(Cc2n[nH]c(=O)c3ccccc23)ccc1F)N1CCN(C(=O)C2CC2)CC1 [Olaparib]
- Bliss excess (U-698-M [1]; [12]): 0.0095
- combination Emax (U-698-M [2]; [12]): 0.813

Structure (SMILES): N#Cc1cnc(Nc2cc(NC[C@H]3CNCCO3)c(C(F)(F)F)cn2)cn1 [SRA737] + C=CCn1c(=O)c2cnc(Nc3ccc(N4CCN(C)CC4)cc3)nc2n1-c1cccc(C(C)(C)O)n1 [AZD1775]
- Bliss excess (U-698-M [1]; first compound max 10 µM, partner max 1 µM): 0.0975
- combination Emax (U-698-M [2]; first compound max 10 µM, partner max 1 µM, may be a limit of the assay): 1

Structure (SMILES): N#Cc1cnc(Nc2cc(NC[C@H]3CNCCO3)c(C(F)(F)F)cn2)cn1 [SRA737] + CCc1c2c(nc3ccc(O)cc13)-c1cc3c(c(=O)n1C2)COC(=O)[C@]3(O)CC [SN-38]
- Bliss excess (U-698-M [1]; [7]): -0.0229
- combination Emax (U-698-M [2]; [7]): 0.963

Structure (SMILES): N#Cc1cnc(Nc2cc(NC[C@H]3CNCCO3)c(C(F)(F)F)cn2)cn1 [SRA737] + Nc1ccn([C@@H]2O[C@H](CO)[C@@H](O)C2(F)F)c(=O)n1 [Gemcitabine]
- Bliss excess (U-698-M [1]; [7]): 0.111
- combination Emax (U-698-M [2]; [7]): 0.916

Structure (SMILES): N#Cc1cnc(Nc2cc(NC[C@H]3CNCCO3)c(C(F)(F)F)cn2)cn1 [SRA737] + O=c1[nH]cc(F)c(=O)[nH]1 [5-Fluorouracil]
- Bliss excess (U-698-M [1]; [13]): -0.0673
- combination Emax (U-698-M [2]; [13]): 0.798

Structure (SMILES): C[C@@H](c1ccc2nccn2c1)n1nnc2ncc(-c3cnn(C)c3)nc21 [Savolitinib] + CC1(C)CCC(CN2CCN(c3ccc(C(=O)NS(=O)(=O)c4ccc(NCC5CCOCC5)c([N+](=O)[O-])c4)c(Oc4cnc5[nH]ccc5c4)c3)CC2)=C(c2ccc(Cl)cc2)C1 [Venetoclax]
- Bliss excess (U-698-M [1]; [9]): -0.0313
- combination Emax (U-698-M [2]; [9]): 0.191
